The text below walks through data of patent US20070232590A1, “3-Cylcoalkylbenzazepines as Histamine H3 Antagonists” (GLAXO GROUP LIMITED, priority 2004, published 2007).

In experiment [1] the target is T1, histamine H3 receptor (Homo sapiens, UniProt Q9Y5N1).
T1 construct: expressed in transfected cells; host or cells: CHO K1 cells carrying pSwitch, transfected with pGeneH3 and induced with mifepristone; clone 3H3; membrane preparation
The experiment can be described thus: Histamine H3 functional antagonist assay (method A), [35S]-GTPγS SPA on membranes. It is filed as biochemical. Conditions: functional pKi, membrane from cultured H3 cells (CHO K1), histamine at EC80, averages of a number of experiments, read-out: Antagonism (fpKi) (converted). The source says:
(§1) A membrane preparation containing histamine H3 receptors may be prepared in accordance with the following procedures:
(§2) (i) Generation of Histamine H3 Cell Line
(§3) DNA encoding the human histamine H3 gene (Huvar, A. et al. (1999) Mol. Pharmacol. 55(6), 1101-1107) was cloned into a holding vector, pCDNA3.1 TOPO (InVitrogen) and its cDNA was isolated from this vector by restriction digestion of plasmid DNA with the enzymes BamH1 and Not-1 and ligated into the inducible expression vector pGene (InVitrogen) digested with the same enzymes. The GeneSwitch™ system (a system where in transgene expression is switched off in the absence of an inducer and switched on in the presence of an inducer) was performed as described in U.S. Pat. Nos. 5,364,791; 5,874,534; and 5,935,934. Ligated DNA was transformed into competent DH5α E. coli host bacterial cells and plated onto Luria Broth (LB) agar containing Zeocin™ (an antibiotic which allows the selection of cells expressing the sh ble gene which is present on pGene and pSwitch) at 50 μg ml^−1. Colonies containing the re-ligated plasmid were identified by restriction analysis. DNA for transfection into mammalian cells was prepared from 250 ml cultures of the host bacterium containing the pGeneH3 plasmid and isolated using a DNA preparation kit (Qiagen Midi-Prep) as per manufacturers guidelines (Qiagen).
CHO K1 cells previously transfected with the pSwitch regulatory plasmid (InVitrogen) were seeded at 2×10e6 cells per T75 flask in Complete Medium, containing Hams F12 (GIBCOBRL, Life Technologies) medium supplemented with 10% v/v dialysed foetal bovine serum, L-glutamine, and hygromycin (100 μg ml^−1), 24 hours prior to use. Plasmid DNA was transfected into the cells using Lipofectamine plus according to the manufacturers guidelines (InVitrogen). 48 hours post transfection cells were placed into complete medium supplemented with 500 μg ml^−1 Zeocin™.
10-14 days post selection 10 nM Mifepristone (InVitrogen), was added to the culture medium to induce the expression of the receptor. 18 hours post induction cells were detached from the flask using ethylenediamine tetra-acetic acid (EDTA; 1:5000; InVitrogen), following several washes with phosphate buffered saline pH 7.4 and resuspended in Sorting Medium containing Minimum Essential Medium (MEM), without phenol red, and supplemented with Earles salts and 3% Foetal Clone II (Hyclone). Approximately 1×10e7 cells were examined for receptor expression by staining with a rabbit polyclonal antibody, 4a, raised against the N-terminal domain of the histamine H3 receptor, incubated on ice for 60 minutes, followed by two washes in sorting medium. Receptor bound antibody was detected by incubation of the cells for 60 minutes on ice with a goat anti rabbit antibody, conjugated with Alexa 488 fluorescence marker (Molecular Probes). Following two further washes with Sorting Medium, cells were filtered through a 50 μm Filcon™ (BD Biosciences) and then analysed on a FACS Vantage SE Flow Cytometer fitted with an Automatic Cell Deposition Unit. Control cells were non-induced cells treated in a similar manner. Positively stained cells were sorted as single cells into 96-well plates, containing Complete Medium containing 500 μg ml^−1 Zeocin™ and allowed to expand before reanalysis for receptor expression via antibody and ligand binding studies. One clone, 3H3, was selected for membrane preparation.
(ii) Membrane Preparation from Cultured Cells
All steps of the protocol are carried out at 4° C. and with pre-cooled reagents. The cell pellet is resuspended in 10 volumes of homogenisation buffer (50 mM N-2-hydroxyethylpiperazine-N′-2-ethanesulfonic acid (HEPES), 1 mM ethylenediamine tetra-acetic acid (EDTA), pH 7.4 with KOH, supplemented with 10e-6M leupeptin (acetyl-leucyl-leucyl-arginal; Sigma L2884), 25 μg/ml bacitracin (Sigma B0125), 1 mM phenylmethylsulfonyl fluoride (PMSF) and 2×10 e-6M pepstain A (Sigma)). […]

Experiment [2] concerns the target T1, histamine H3 receptor. Kind of experiment: Histamine H3 functional antagonist assay (method B), [35S]-GTPγS SPA on membranes. Type of experiment: biochemical. Conditions: functional pKi, membrane from cultured H3 cells (CHO K1), histamine at EC80, averages of a number of experiments, read-out: Antagonism (fpKi) (converted).
Source text: as §1, §2
as §3, with “(Qiagen). […]” for “(Qiagen).”
10-14 days post selection 10 nM Mifepristone (InVitrogen), was added to the culture medium to induce the expression of the receptor. […] Receptor bound antibody was detected by incubation of the cells for 60 minutes on ice with a goat anti rabbit antibody, conjugated with Alexa 488 fluorescence marker (Molecular Probes). Following two further washes with Sorting Medium, cells were filtered through a 50 μm Filcon™ (BD Biosciences) and then analysed on a FACS Vantage SE Flow Cytometer fitted with an Automatic Cell Deposition Unit. […]

T1 sequence (Q9Y5N1 whole entry): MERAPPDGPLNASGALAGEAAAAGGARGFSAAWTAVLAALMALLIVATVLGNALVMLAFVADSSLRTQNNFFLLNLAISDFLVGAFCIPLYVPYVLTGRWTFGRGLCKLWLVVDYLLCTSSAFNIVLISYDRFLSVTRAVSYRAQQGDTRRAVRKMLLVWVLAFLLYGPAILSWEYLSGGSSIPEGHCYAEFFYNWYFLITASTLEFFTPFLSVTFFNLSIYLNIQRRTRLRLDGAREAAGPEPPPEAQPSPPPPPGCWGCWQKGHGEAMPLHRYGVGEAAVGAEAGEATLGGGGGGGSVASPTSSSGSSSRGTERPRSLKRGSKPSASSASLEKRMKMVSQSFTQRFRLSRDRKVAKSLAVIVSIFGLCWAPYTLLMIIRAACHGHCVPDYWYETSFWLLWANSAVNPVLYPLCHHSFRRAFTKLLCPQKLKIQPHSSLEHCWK

In the case of `O=C1CCCN1c1ccc(Oc2ccc3c(c2)CCN(C2CCCC2)CC3)nc1` [Compound 1, 1-{6-[(3-Cyclopentyl-2,3,4,5-tetrahydro-1H-3-benzazepin-7-yl)oxy]-3-pyridinyl}-2-pyrrolidinone], the Ki on histamine H3 receptor [1] is 0.0794 nM; on histamine H3 receptor [2], 0.158 nM. With `O=C1CCCN1c1ccc(Oc2ccc3c(c2)CCN(C2CCCC2)CC3)nn1` [Compound 6, 1-{6-[(3-Cyclopentyl-2,3,4,5-tetrahydro-1H-3-benzazepin-7-yl)oxy]-3-pyridazinyl}-2-pyrrolidinone], the Ki at histamine H3 receptor [1] is 0.126 nM. For `Cc1noc(-c2cnc(Oc3ccc4c(c3)CCN(C3CCCC3)CC4)cn2)n1` [Compound 7, 3-Cyclopentyl-7-{[5-(3-methyl-1,2,4-oxadiazol-5-yl)-2-pyrazinyl]oxy}-2,3,4,5-tetrahydro-1H-3-benzazepine], at histamine H3 receptor [1], the Ki was 0.126 nM. For the compound `CN1CCN(c2ccc(Oc3ccc4c(c3)CCN(C3CCC3)CC4)c(F)c2)C1=O` [Compound 3, 1-{4-[(3-Cyclobutyl-2,3,4,5-tetrahydro-1H-3-benzazepin-7-yl)oxy]-3-fluorophenyl}-3-methyl-2-imidazolidinone], the Ki is 0.0501 nM at histamine H3 receptor [1] and 0.158 nM on histamine H3 receptor [2]. Turning to `Cc1noc(-c2ccc(Oc3ccc4c(c3)CCN(C3CCCC3)CC4)nc2)n1` [Compound 9, 3-Cyclopentyl-7-{[5-(3-methyl-1,2,4-oxadiazol-5-yl)-2-pyridinyl]oxy}-2,3,4,5-tetrahydro-1H-3-benzazepine], the Ki on histamine H3 receptor [1] is 0.251 nM. Still for that read-out and setting: then `Cc1noc(-c2ccc(Oc3ccc4c(c3)CCN(C3CCC3)CC4)nc2)n1` [Compound 8, 3-Cyclobutyl-7-{[5-(3-methyl-1,2,4-oxadiazol-5-yl)-2-pyridinyl]oxy}-2,3,4,5-tetrahydro-1H-3-benzazepine], with 0.1 nM. For `O=C1OCCN1c1ccc(Oc2ccc3c(c2)CCN(C2CCCC2)CC3)nn1` [Compound 5, 3-{6-[(3-Cyclopentyl-2,3,4,5-tetrahydro-1H-3-benzazepin-7-yl)oxy]-3-pyridazinyl}-1,3-oxazolidin-2-one], on histamine H3 receptor [1], the Ki was 0.0501 nM. As to `O=C1CCCN1c1cnc(Oc2ccc3c(c2)CCN(C2CCCC2)CC3)cn1` [Compound 2, 1-{5-[(3-Cyclopentyl-2,3,4,5-tetrahydro-1H-3-benzazepin-7-yl)oxy]-2-pyrazinyl}-2-pyrrolidinone], the Ki is 0.0794 nM at histamine H3 receptor [1] and 0.158 nM at histamine H3 receptor [2].

With `O=C1CCCN1c1ccc(Oc2ccc3c(c2)CCN(C2CCC2)CC3)cc1` [Compound 4, 1-{4-[(3-Cyclobutyl-2,3,4,5-tetrahydro-1H-3-benzazepin-7-yl)oxy]phenyl}-2-pyrrolidinone], on histamine H3 receptor [1], the Ki is 0.158 nM.
